Columns and labels:
[1] = molecular target: purified Chinese hamster IMPDH (Cricetulus griseus, UniProt P12269); test: Kinetic studies of purified IMPDH (IMP-dependent NAD reduction, absorbance at 340 nm)
Method: Kinetic studies were carried out by varying the substrate conditions. In all cases, linear reciprocal plots were defined by simple regression analysis of the data.

[2] = test system: VM1 through VM4 variants of V79 cells; test: Resistance of stepwise-selected cell variants to MPA cytotoxicity; type: cell-based, Chinese hamster
Method: According to the present invention, the resistance level of one of these cell variants was further increased by a stepwise selection in the presence of increasing concentrations of MPA. After adaptation to the higher concentration of MPA, the cells were seeded in medium containing an increased concentration of MPA at 200 cells per 60-mm petri dish, and MPA-resistant colonies were isolated 8 days later.

E. coli IMPDH enzyme = E. coli IMPDH enzyme (Escherichia coli, UniProt P0ADG7); settings: unlike mammalian cell enzymes; cited from earlier work
[3] = test system: IMP1 cell clone (transfected V15 hamster cells); settings: mycophenolic acid 2 μg/mL in culture medium
Method: After introduction of the construct into the hamster cells, mycophenolic acid (2 μg/mL) was added to the culture medium to select for those cells that had integrated the construct into their genetic material. Those cells that have integrated the construct into their genetic material produce the IMPDH enzyme and are therefore resistant to the cytotoxic effects of mycophenolic acid.
[Dulbecco's modified MEM containing 5% fetal bovine serum, aminopterin (2 μg/mL), and mycophenolic acid (25 μg/mL), and supplemented with hypoxanthine (15 μg/mL), thymidine (10 μg/mL), and xanthine (250 μg/mL)]. The ability of the cells to grow in the selective medium is attributable to the production of the E. coli gpt enzyme, which catalyzes the production of xanthine monophosphate from the reaction of xanthine and phosphoribosyl pyroposphate. Presence of the enzyme compensates for the purine de novo synthetic block imposed by the presence of aminopterin and MPA.

V79 cells = test: Growth of control and MNNG-treated V79 cells incubated with MPA; type: cell-based, Chinese hamster; settings: untreated 5.0±0.3
parental V79 cells = test: Resistance of parental cells to MPA cytotoxicity; type: cell-based, Chinese hamster

Chain of purified Chinese hamster IMPDH (P12269 whole entry): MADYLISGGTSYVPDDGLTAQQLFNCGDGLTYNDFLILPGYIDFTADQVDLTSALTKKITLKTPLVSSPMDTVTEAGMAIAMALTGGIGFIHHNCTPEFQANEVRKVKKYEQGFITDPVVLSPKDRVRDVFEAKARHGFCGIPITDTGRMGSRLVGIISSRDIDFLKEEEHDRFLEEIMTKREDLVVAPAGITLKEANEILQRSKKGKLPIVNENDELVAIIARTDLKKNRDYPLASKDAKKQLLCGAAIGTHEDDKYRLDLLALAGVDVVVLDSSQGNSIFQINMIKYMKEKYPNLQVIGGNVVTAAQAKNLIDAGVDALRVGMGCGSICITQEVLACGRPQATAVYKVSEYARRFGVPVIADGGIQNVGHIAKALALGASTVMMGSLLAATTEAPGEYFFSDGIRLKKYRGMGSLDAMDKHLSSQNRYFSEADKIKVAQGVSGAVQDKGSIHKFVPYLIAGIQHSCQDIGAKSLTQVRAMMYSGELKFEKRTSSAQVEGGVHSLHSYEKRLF
Chain of E. coli IMPDH enzyme (P0ADG7 whole entry): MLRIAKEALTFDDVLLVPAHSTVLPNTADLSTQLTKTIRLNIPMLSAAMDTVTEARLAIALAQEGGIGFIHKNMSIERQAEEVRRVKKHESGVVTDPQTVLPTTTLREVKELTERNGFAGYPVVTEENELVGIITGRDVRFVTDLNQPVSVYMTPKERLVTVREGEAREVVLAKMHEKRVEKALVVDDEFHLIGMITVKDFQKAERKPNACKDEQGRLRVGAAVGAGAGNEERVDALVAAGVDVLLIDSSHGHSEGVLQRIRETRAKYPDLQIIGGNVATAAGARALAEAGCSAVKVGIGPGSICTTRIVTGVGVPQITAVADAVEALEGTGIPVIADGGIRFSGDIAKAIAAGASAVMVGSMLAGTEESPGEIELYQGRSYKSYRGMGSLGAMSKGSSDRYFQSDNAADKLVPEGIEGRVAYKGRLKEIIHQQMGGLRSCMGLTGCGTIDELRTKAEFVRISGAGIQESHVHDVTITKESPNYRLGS

## NC(=O)c1ccc[n+]([C@@H]2O[C@H](COP(=O)([O-])OP(=O)(O)OC[C@H]3O[C@@H](n4cnc5c(N)ncnc54)[C@H](O)[C@@H]3O)[C@@H](O)[C@H]2O)c1 [NAD]
[1]; substrate of Chinese hamster enzyme, linear reciprocal plots
  Km: 29 µM

## COc1c(C)c2c(c(O)c1C/C=C(\C)CCC(=O)O)C(=O)OC2 [MPA, mycophenolic acid]
[1]; sensitivity of Chinese hamster enzyme to MPA
  Ki: nanomolar range
[2]; VM1 variant
  MPA concentration to which cells are resistant: 5 µg/mL
[2]; VM2 variant
  MPA concentration to which cells are resistant: 10 µg/mL
[2]; VM3 variant
  MPA concentration to which cells are resistant: 25 µg/mL
[2]; VM4 variant
  MPA concentration to which cells are resistant: 50 µg/mL
E. coli IMPDH enzyme
  sensitivity to the inhibitory effect: insensitive
[3]
  resistance of cell clone to cytotoxic effects: resistant
V79 cells; MPA at 0.1 μg/mL
  cells per Petri dish after 5 days of growth, mean (±SD): 1.4±0.2 ×10^6 cells per Petri dish
V79 cells; MPA at 0.3 μg/mL
  cells per Petri dish after 5 days of growth, mean (±SD): 0.2±0.05 ×10^6 cells per Petri dish
Parental V79 cells
  MPA concentration to which cells are resistant: 0.1 µg/mL
